The source of these data is patent US11547698B2, “Aryl hydrocarbon receptor modulators” (ARIAGEN, INC., priority 2016, dated 2023).

For the data set, the target named is T1, AhR receptor (Homo sapiens, UniProt P35869).
T1 construct: cells of reporter gene expressing natural (Human Hepatoma Huh-7) AhR receptor; endogenous in cells; host or cells: Human hepatoma Huh-7 reporter cells (firefly luciferase under a receptor-specific response element)
T1 sequence (P35869 11-848): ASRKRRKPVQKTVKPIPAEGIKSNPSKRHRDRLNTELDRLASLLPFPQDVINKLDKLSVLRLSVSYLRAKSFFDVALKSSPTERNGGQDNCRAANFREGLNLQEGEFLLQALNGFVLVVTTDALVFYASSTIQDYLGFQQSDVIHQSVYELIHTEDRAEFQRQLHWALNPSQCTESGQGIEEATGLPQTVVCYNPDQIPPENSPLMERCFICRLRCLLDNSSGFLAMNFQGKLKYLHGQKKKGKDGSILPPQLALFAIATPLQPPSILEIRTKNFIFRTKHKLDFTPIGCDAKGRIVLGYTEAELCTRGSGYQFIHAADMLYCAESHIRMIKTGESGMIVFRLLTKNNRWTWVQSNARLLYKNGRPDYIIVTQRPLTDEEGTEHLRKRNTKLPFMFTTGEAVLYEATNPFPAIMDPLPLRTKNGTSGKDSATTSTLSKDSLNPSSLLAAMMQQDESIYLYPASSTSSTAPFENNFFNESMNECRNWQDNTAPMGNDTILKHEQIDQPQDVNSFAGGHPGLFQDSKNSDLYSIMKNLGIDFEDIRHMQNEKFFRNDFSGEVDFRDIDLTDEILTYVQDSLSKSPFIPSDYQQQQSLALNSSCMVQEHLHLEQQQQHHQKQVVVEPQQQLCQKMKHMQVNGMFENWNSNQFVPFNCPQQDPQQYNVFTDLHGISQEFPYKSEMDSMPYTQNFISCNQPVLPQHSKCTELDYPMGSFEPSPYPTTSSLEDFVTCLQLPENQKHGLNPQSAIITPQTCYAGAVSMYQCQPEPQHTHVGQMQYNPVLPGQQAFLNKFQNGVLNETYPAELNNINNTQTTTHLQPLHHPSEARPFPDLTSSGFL
Briefly: AhR agonist assay (luciferase reporter gene cells). Conditions: reporter cells expressing natural (Human Hepatoma Huh-7) AhR receptor, firefly luciferase, 24 hours at 37° C., 0.1% DMSO. Type of data set: cell-based. The method, then:
Experimental material (plasmids): cells of reporter gene expressing natural (Human Hepatoma Huh-7) AhR receptor, in which reporter vector comprises a functional firefly luciferase gene connecting to an upstream receptor specific genetic response element (GRE).
AhR agonist test includes following three steps:
1, Implanting into cells: a suspension of reporter cell of AhR receptor was prepared in cell recovery medium (CRM; containing 10% charcoal-treated FBS). Then the suspension (100 μL) was assigned to wells in a white culture plate with 96 wells.
2, Before the experiment was about to begin, Master Stocks was diluted to be a processing medium of “concentration of 2 X” by use of appropriate compound screening assay medium (CSM: containing 10% charcoal-treated FBS). Test compounds were diluted with gradient method by use of CSM medium containing 0.2% DMSO to make the final concentration of DMSO in each well of each treatment group being 0.1%. The processing medium was added to culture plate (100 μL/well) on which cells containing reporter gene had been laid in advance in wells by means of double duplicate. The culture plate was placed in an incubator of 37° C. for 24 hours.
3, Fluorescence detection and analysis: after incubation, the processing medium was discarded and luciferase detection reagent was added 100 μL/well. Ave RLU (mean relative fluorescence intensity) of each well and coefficient of variation for each set of experiments were detected. Ratio of Ave RLU^Test Cmpd of treatment groups with test compound of different concentrations to Ave RLU^Vehicle of blank control group can determine activity quantitatively of AhR receptor under influence of test compound of different concentrations and activating multiples as well as EC50.
Processing method of data may refer to J. Biomol.
In general terms: In a reporter assay the amount or activity of a reporter protein is the signal.
In turn, `COC(=O)c1csc(C(=O)c2cn(COC(=O)[C@@H](N)C(C)C)c3ccccc23)n1` [Compound 1-2] yielded an EC50 of 0.001 to 1 µM.
The result for `COC(=O)c1csc(C(=O)c2cn(COC(=O)[C@@H](N)C(C)(C)C)c3ccccc23)n1` [Compound 2-2] reads 0.001 to 1 µM; that for `COC(=O)COCn1cc(C(=O)c2nc(C(=O)OC)cs2)c2ccccc21` [Compound 3], 0.001 to 1 µM; that for `COC(=O)c1csc(C(=O)c2cn(C(=O)[C@@H](N)C(C)C)c3ccccc23)n1` [Compound 4-2], 0.001 to 1 µM.
As to `COCCOCCOCCOC(=O)n1cc(C(=O)c2nc(C(=O)OC)cs2)c2ccccc21` [Compound 5], the EC50 is 0.001 to 1 µM.
For `COCCOCCOCCOCC(=O)OCn1cc(C(=O)c2nc(C(=O)OC)cs2)c2ccccc21` [Compound 6] the value was 0.001 to 1 µM.
Regarding `COCCOCCOCCOCC(=O)OCC(=O)OCn1cc(C(=O)c2nc(C(=O)OC)cs2)c2ccccc21` [Compound 7], the EC50 was in the range of 0.001 to 1 µM.
For `COC(=O)c1nsc(C(=O)c2c[nH]c3ccccc23)n1` [Compound 8] the value was 1 to 10 µM.
For `CC(C)c1nc(C(=O)c2c[nH]c3ccccc23)cs1` [Compound 9] the value was 0.001 to 1 µM; for `COC(=O)c1ccc(C(=O)c2c[nH]c3ccccc23)n1C` [Compound 12], 0.001 to 1 µM; for `COC(=O)c1csc(C(=O)c2c[nH]c3ccccc23)c1` [Compound 15], 10 to 100 µM.
The result for `COC(=O)c1ccc(C(=O)c2c[nH]c3ccccc23)nc1` [Compound 18] reads 1 to 10 µM.
As to `COC(=O)C1CSC(C(=O)c2c[nH]c3ccc(OC)cc23)=N1` (stereo not shown) [Compound 19-1], the concentration for a half-maximal effect (EC50) is 0.001 to 1 µM.
For `COC(=O)c1csc(C(=O)c2c[nH]c3ccc(OC)cc23)n1` [Compound 19-2] the value was 0.001 to 1 µM; for `CC(C)c1csc(C(=O)c2c[nH]c3ccccc23)n1` [Compound 21], 0.001 to 1 µM.
Regarding `O=C(c1nc(-c2ccccn2)cs1)c1c[nH]c2ccccc12` [Compound 22], the EC50 was 0.001 to 1 µM.
For `COC(=O)c1c[nH]c(C(=O)c2c[nH]c3ccccc23)n1` [Compound 23] the value was 0.001 to 1 µM; for `CO/N=C(/c1nc(C(=O)OC)cs1)c1c[nH]c2ccccc12` [Compound 25-1], 1 to 10 µM.
In the case of `CO/N=C(\c1nc(C(=O)OC)cs1)c1c[nH]c2ccccc12` [Compound 25-2], the EC50 lay within 1 to 10 µM.
`COC(=O)c1csc(/C(=N/O)c2c[nH]c3ccccc23)n1` [Compound 26-1] yielded an EC50 of 1 to 10 µM.
The result for `COC(=O)c1csc(/C(=N\O)c2c[nH]c3ccccc23)n1` [Compound 26-2] reads 1 to 10 µM; that for `COC(=O)CNC(=O)c1csc(C(=O)c2c[nH]c3ccccc23)n1` [Compound 27], 0.001 to 1 µM; that for `COC(=O)c1csc(Cc2c[nH]c3ccccc23)n1` [Compound 28], 10 to 100 µM.
The compound `COC(=O)[C@@H]1COC(c2csc(C(=O)c3c[nH]c4ccccc34)n2)=N1` [Compound 30-1] yielded an EC50 of 0.001 to 1 µM.
The result for `COC(=O)c1coc(-c2csc(C(=O)c3c[nH]c4ccccc34)n2)n1` [Compound 30-2] reads 0.001 to 1 µM.
On to `O=C(c1nc(C2=NCCS2)cs1)c1c[nH]c2ccccc12` [Compound 31-1], for which the EC50 is 0.001 to 1 µM.
For `O=C(c1nc(-c2nccs2)cs1)c1c[nH]c2ccccc12` [Compound 31-2] the value was 0.001 to 1 µM.
The result for `COC(=O)C1CSC(c2csc(C(=O)c3c[nH]c4ccccc34)n2)=N1` (stereo not shown) [Compound 32-1] reads 0.001 to 1 µM; that for `COC(=O)c1csc(-c2csc(C(=O)c3c[nH]c4ccccc34)n2)n1` [Compound 32-2], 0.001 to 1 µM.
The result for `O=C(c1nc(C2=NCCO2)cs1)c1c[nH]c2ccccc12` [Compound 33-1] reads 0.001 to 1 µM.
For `O=C(c1nc(-c2ncco2)cs1)c1c[nH]c2ccccc12` [Compound 33-2], the EC50 lay within 0.001 to 1 µM.
Consider `COC(=O)c1nnc(C(=O)c2c[nH]c3ccccc23)o1` [Compound 34], for which the concentration for a half-maximal effect (EC50) lay within 1 to 10 µM.
For `O=C(c1nc(-c2nnn[nH]2)cs1)c1c[nH]c2ccccc12` [Compound 35] the value was 1 to 10 µM; for `O=C(c1nc(-c2nnc[nH]2)cs1)c1c[nH]c2ccccc12` [Compound 36], 0.001 to 1 µM.
For `COC(=O)c1csc(C(=O)c2cn(CO)c3ccccc23)n1` [Compound 37] the value was 0.001 to 1 µM.
The result for `COC(=O)c1csc(C(=O)c2cn(C3OC(COC(C)=O)C(OC(C)=O)C(OC(C)=O)C3OC(C)=O)c3ccccc23)n1` (stereo not shown) [Compound 38-1] reads 0.001 to 1 µM; that for `COC(=O)c1csc(C(=O)c2cn(C3OC(COC(C)=O)C(OC(C)=O)C(OC(C)=O)C3OC(C)=O)c3ccccc23)n1` (stereo not shown) [Compound 38-2], 0.001 to 1 µM; that for `COC(=O)c1csc(C(=O)c2cn(C3OC(COC(C)=O)C(O)C(O)C3O)c3ccccc23)n1` (stereo not shown) [Compound 38-3], 0.001 to 1 µM.
Consider `COC(=O)c1csc(C(=O)c2cn(C3OC(CO)C(O)C(O)C3O)c3ccccc23)n1` (stereo not shown) [Compound 38-4], for which the EC50 lay in the range of 0.001 to 1 µM.
The result for `O=C(c1nc(-c2cnccn2)cs1)c1c[nH]c2ccccc12` [Compound 39] reads 0.001 to 1 µM; that for `O=C(c1nc(-c2ccco2)cs1)c1c[nH]c2ccccc12` [Compound 40], 0.001 to 1 µM.
Regarding `O=C(c1nc(C2CC2)cs1)c1c[nH]c2ccccc12` [Compound 41], the EC50 lay within 0.001 to 1 µM.
The result for `CC(C)[C@H](NC(=O)OC(C)(C)C)C(=O)n1cc(C(=O)c2nc(-c3nccs3)cs2)c2ccccc21` [Compound 42-1] reads 0.001 to 1 µM; that for `CC(C)[C@H](N)C(=O)n1cc(C(=O)c2nc(-c3nccs3)cs2)c2ccccc21` [Compound 42-2], 0.001 to 1 µM; that for `O=C(c1nc(-c2c[nH]cn2)cs1)c1c[nH]c2ccccc12` [Compound 43-2], 0.001 to 1 µM.
For `Nc1nc(-c2csc(C(=O)c3c[nH]c4ccccc34)n2)cs1` [Compound 44] the value was 0.001 to 1 µM.

A word on the EC50: it is the concentration needed to bring the measured effect to its halfway point. High values mean weaker potency, low ones greater potency.
